What was measured:
Format in all cases: in vivo
[1] = test system: barnyard grass; assay: Test Example 1: weedkilling efficacy, preemergent weed treatment in the submerged state; A: barnyard grass
In short: (§1)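 Pots of alluvial soil flooded 4 cm deep, sown with barnyard grass, bulrush and oval-leafed pondweed and transplanted with 2.5-leaf rice. Emulsified compound applied to the water surface on sowing day at stated g/ha; greenhouse 25–30 °C, effects assessed 3 weeks after treatment.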

[2] = test system: bulrush; assay: Test Example 1: weedkilling efficacy, preemergent weed treatment in the submerged state; B: bulrush
In short: as §1

[3] = test system: oval-leafed pondweed; assay: Test Example 1: weedkilling efficacy, preemergent weed treatment in the submerged state; C: oval-leafed pondweed
In short: as §1

[4] = test system: transplanted rice; assay: Test Example 1: preemergent weed treatment in the submerged state, effect on crop; a: transplanted rice
In short: as §1

[5] = test system: barnyard grass; assay: Test Example 2: weedkilling efficacy, growth period weed treatment in the submerged state; A: barnyard grass
In short: (§2)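 Barnyard grass, bulrush and oval-leafed pondweed sown in alluvial soil under 4 cm flooding, greenhouse 25 to 30° C. At 1-2 leaf stage, water-diluted emulsion applied to the water surface at stated g/ha dosages; effects scored 3 weeks later.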

[6] = test system: bulrush; assay: Test Example 2: weedkilling efficacy, growth period weed treatment in the submerged state; B: bulrush
In short: as §2

[7] = test system: oval-leafed pondweed; assay: Test Example 2: weedkilling efficacy, growth period weed treatment in the submerged state; C: oval-leafed pondweed
In short: as §2

[8] = test system: crabgrass; assay: Test Example 3: weedkilling efficacy through soil treatment; D: crabgrass; details: soil treatment, treatment dosage 320 g/ha
In short: (§3)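 Crop and weed responses were judged three weeks after a uniform surface spray of the water-diluted emulsion at the given g/ha rate. Seeds sat beneath about 1.5 cm of sterilized diluvial soil, and boxes stood in a greenhouse at 25 to 30° C.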

[9] = test system: green foxtail; assay: Test Example 3: weedkilling efficacy through soil treatment; E: green foxtail; details: soil treatment, treatment dosage 320 g/ha
In short: as §3

[10] = test system: barnyard grass; assay: Test Example 3: weedkilling efficacy through soil treatment; F: barnyard grass; details: soil treatment, treatment dosage 320 g/ha
In short: as §3

[11] = test system: wild oat; assay: Test Example 3: weedkilling efficacy through soil treatment; G: wild oat; details: soil treatment, treatment dosage 320 g/ha
In short: as §3

[12] = test system: black-grass; assay: Test Example 3: weedkilling efficacy through soil treatment; H: black-grass; details: soil treatment, treatment dosage 320 g/ha
In short: as §3

[13] = test system: Italian ryegrass; assay: Test Example 3: weedkilling efficacy through soil treatment; I: Italian ryegrass; details: soil treatment, treatment dosage 320 g/ha
In short: as §3

[14] = test system: common wind-grass; assay: Test Example 3: weedkilling efficacy through soil treatment; J: common wind-grass; details: soil treatment, treatment dosage 320 g/ha
In short: as §3

[15] = test system: Indian mallow; assay: Test Example 3: weedkilling efficacy through soil treatment; K: Indian mallow; details: soil treatment, treatment dosage 320 g/ha
In short: as §3

[16] = test system: redroot pigweed; assay: Test Example 3: weedkilling efficacy through soil treatment; L: redroot pigweed; details: soil treatment, treatment dosage 320 g/ha
In short: as §3

[17] = test system: fig-leafed goosefoot; assay: Test Example 3: weedkilling efficacy through soil treatment; M: fig-leafed goosefoot; details: soil treatment, treatment dosage 320 g/ha
In short: as §3

[18] = test system: chickweed; assay: Test Example 3: weedkilling efficacy through soil treatment; N: chickweed; details: soil treatment, treatment dosage 320 g/ha
In short: as §3

[19] = test system: catchweed; assay: Test Example 3: weedkilling efficacy through soil treatment; O: catchweed; details: soil treatment, treatment dosage 320 g/ha
In short: as §3

[20] = test system: birds-eye speedwell; assay: Test Example 3: weedkilling efficacy through soil treatment; p: birds-eye speedwell; details: soil treatment, treatment dosage 320 g/ha
In short: as §3

[21] = test system: directly sown rice; assay: Test Example 3: soil treatment, effect on crop; b: directly sown rice; details: soil treatment, treatment dosage 320 g/ha
In short: as §3

[22] = test system: corn; assay: Test Example 3: soil treatment, effect on crop; c: corn; details: soil treatment, treatment dosage 320 g/ha
In short: as §3

[23] = test system: soybean; assay: Test Example 3: soil treatment, effect on crop; d: soybean; details: soil treatment, treatment dosage 320 g/ha
In short: as §3

[24] = test system: wheat; assay: Test Example 3: soil treatment, effect on crop; e: wheat; details: soil treatment, treatment dosage 320 g/ha
In short: as §3

[25] = test system: beet; assay: Test Example 3: soil treatment, effect on crop; f: beet; details: soil treatment, treatment dosage 320 g/ha
In short: as §3

[26] = test system: rapeseed; assay: Test Example 3: soil treatment, effect on crop; g: rapeseed; details: soil treatment, treatment dosage 320 g/ha
In short: as §3

| Structure (SMILES) | D: crabgrass, weedkilling efficacy grade [8] | E: green foxtail, weedkilling efficacy grade [9] | F: barnyard grass, weedkilling efficacy grade [10] | G: wild oat, weedkilling efficacy grade [11] | H: black-grass, weedkilling efficacy grade [12] | I: Italian ryegrass, weedkilling efficacy grade [13] | J: common wind-grass, weedkilling efficacy grade [14] | K: Indian mallow, weedkilling efficacy grade [15] | L: redroot pigweed, weedkilling efficacy grade [16] | M: fig-leafed goosefoot, weedkilling efficacy grade [17] | N: chickweed, weedkilling efficacy grade [18] | O: catchweed, weedkilling efficacy grade [19] | P: birds-eye speedwell, weedkilling efficacy grade [20] | b: directly sown rice, effect on crop grade [21] | c: corn, effect on crop grade [22] | d: soybean, effect on crop grade [23] | e: wheat, effect on crop grade [24] | f: beet, effect on crop grade [25] | g: rapeseed, effect on crop grade [26] | A: barnyard grass, weed kill grade ([1]; treatment dosage 320 g/ha) | further results |
| --- | --- | --- | --- | --- | --- | --- | --- | --- | --- | --- | --- | --- | --- | --- | --- | --- | --- | --- | --- | --- | --- |
| CC(C)(C(=O)Nc1cc(Cl)cc(F)n1)N1COCN(c2ccccc2)C1=O [A-2-15] | 5 (weed kill ratio 90% or more, (practically complete withering)) | 5 (weed kill ratio 90% or more, (practically complete withering)) | 5 (weed kill ratio 90% or more, (practically complete withering)) | 5 (weed kill ratio 90% or more, (practically complete withering)) | 5 (weed kill ratio 90% or more, (practically complete withering)) | 5 (weed kill ratio 90% or more, (practically complete withering)) | 5 (weed kill ratio 90% or more, (practically complete withering)) | 4 (weed kill ratio 70% or more, less than 90%) | 4 (weed kill ratio 70% or more, less than 90%) | 4 (weed kill ratio 70% or more, less than 90%) | 5 (weed kill ratio 90% or more, (practically complete withering)) | 5 (weed kill ratio 90% or more, (practically complete withering)) | 5 (weed kill ratio 90% or more, (practically complete withering)) | 5 (weed kill ratio 90% or more, (practically complete withering)) | 4 (weed kill ratio 70% or more, less than 90%) | 3 (weed kill ratio 40% or more, less than 70%) | 4 (weed kill ratio 70% or more, less than 90%) | 3 (weed kill ratio 40% or more, less than 70%) | 4 (weed kill ratio 70% or more, less than 90%) | – | A: barnyard grass, weed kill grade ([1]; treatment dosage 280 g/ha): 5 (weed kill ratio 90% or more, (practically complete withering)); B: bulrush, weed kill grade ([2]; treatment dosage 280 g/ha): 5 (weed kill ratio 90% or more, (practically complete withering)); C: oval-leafed pondweed, weed kill grade ([3]; treatment dosage 280 g/ha): 5 (weed kill ratio 90% or more, (practically complete withering)); a: transplanted rice, effect on crop grade ([4]; treatment dosage 280 g/ha): 4 (weed kill ratio 70% or more, less than 90%); A (barnyard grass) weedkilling efficacy grade ([5]; treatment dosage 280 g/ha): 5 (weed kill ratio 90% or more, (practically complete withering)); B (bulrush) weedkilling efficacy grade ([6]; treatment dosage 280 g/ha): 5 (weed kill ratio 90% or more, (practically complete withering)); C (oval-leafed pondweed) weedkilling efficacy grade ([7]; treatment dosage 280 g/ha): 5 (weed kill ratio 90% or more, (practically complete withering)) |
| CC(C)(C(=O)Nc1cc(F)cc(Cl)n1)N1COCN(c2ccccc2)C1=O [A-2-14] | 5 (weed kill ratio 90% or more, (practically complete withering)) | 5 (weed kill ratio 90% or more, (practically complete withering)) | 5 (weed kill ratio 90% or more, (practically complete withering)) | 5 (weed kill ratio 90% or more, (practically complete withering)) | 5 (weed kill ratio 90% or more, (practically complete withering)) | 5 (weed kill ratio 90% or more, (practically complete withering)) | 5 (weed kill ratio 90% or more, (practically complete withering)) | 5 (weed kill ratio 90% or more, (practically complete withering)) | 5 (weed kill ratio 90% or more, (practically complete withering)) | 5 (weed kill ratio 90% or more, (practically complete withering)) | 5 (weed kill ratio 90% or more, (practically complete withering)) | 5 (weed kill ratio 90% or more, (practically complete withering)) | 5 (weed kill ratio 90% or more, (practically complete withering)) | 5 (weed kill ratio 90% or more, (practically complete withering)) | 4 (weed kill ratio 70% or more, less than 90%) | 4 (weed kill ratio 70% or more, less than 90%) | 4 (weed kill ratio 70% or more, less than 90%) | 4 (weed kill ratio 70% or more, less than 90%) | 4 (weed kill ratio 70% or more, less than 90%) | 5 (weed kill ratio 90% or more, (practically complete withering)) | B: bulrush, weed kill grade ([2]; treatment dosage 320 g/ha): 5 (weed kill ratio 90% or more, (practically complete withering)); C: oval-leafed pondweed, weed kill grade ([3]; treatment dosage 320 g/ha): 5 (weed kill ratio 90% or more, (practically complete withering)); a: transplanted rice, effect on crop grade ([4]; treatment dosage 320 g/ha): 3 (weed kill ratio 40% or more, less than 70%); A (barnyard grass) weedkilling efficacy grade ([5]; treatment dosage 320 g/ha): 5 (weed kill ratio 90% or more, (practically complete withering)); B (bulrush) weedkilling efficacy grade ([6]; treatment dosage 320 g/ha): 5 (weed kill ratio 90% or more, (practically complete withering)); C (oval-leafed pondweed) weedkilling efficacy grade ([7]; treatment dosage 320 g/ha): 5 (weed kill ratio 90% or more, (practically complete withering)) |
| Cc1cc(F)nc(NC(=O)C(C)(C)N2COCN(c3ccccc3)C2=O)c1 [A-2-20] | 5 (weed kill ratio 90% or more, (practically complete withering)) | 5 (weed kill ratio 90% or more, (practically complete withering)) | 5 (weed kill ratio 90% or more, (practically complete withering)) | 5 (weed kill ratio 90% or more, (practically complete withering)) | 5 (weed kill ratio 90% or more, (practically complete withering)) | 5 (weed kill ratio 90% or more, (practically complete withering)) | 5 (weed kill ratio 90% or more, (practically complete withering)) | 4 (weed kill ratio 70% or more, less than 90%) | 4 (weed kill ratio 70% or more, less than 90%) | 4 (weed kill ratio 70% or more, less than 90%) | 4 (weed kill ratio 70% or more, less than 90%) | 5 (weed kill ratio 90% or more, (practically complete withering)) | 5 (weed kill ratio 90% or more, (practically complete withering)) | 5 (weed kill ratio 90% or more, (practically complete withering)) | 1 (weed kill ratio 5% or more, less than 20%) | 3 (weed kill ratio 40% or more, less than 70%) | 3 (weed kill ratio 40% or more, less than 70%) | 4 (weed kill ratio 70% or more, less than 90%) | 4 (weed kill ratio 70% or more, less than 90%) | 5 (weed kill ratio 90% or more, (practically complete withering)) | B: bulrush, weed kill grade ([2]; treatment dosage 320 g/ha): 5 (weed kill ratio 90% or more, (practically complete withering)); C: oval-leafed pondweed, weed kill grade ([3]; treatment dosage 320 g/ha): 5 (weed kill ratio 90% or more, (practically complete withering)); a: transplanted rice, effect on crop grade ([4]; treatment dosage 320 g/ha): 3 (weed kill ratio 40% or more, less than 70%); A (barnyard grass) weedkilling efficacy grade ([5]; treatment dosage 320 g/ha): 5 (weed kill ratio 90% or more, (practically complete withering)); B (bulrush) weedkilling efficacy grade ([6]; treatment dosage 320 g/ha): 5 (weed kill ratio 90% or more, (practically complete withering)); C (oval-leafed pondweed) weedkilling efficacy grade ([7]; treatment dosage 320 g/ha): 5 (weed kill ratio 90% or more, (practically complete withering)) |

— patent publication US9738634B2, “Heterocyclic amide compound and herbicide” (SYNGENTA PARTICIPATIONS AG, priority 2013, dated 2017)
